Tests used:
HIV = assay: Activity against HIV and other sexually transmitted diseases; conditions: by comparison with dextrin 2- and 6-sulphates

Substance | activity against HIV and other sexually transmitted diseases (STDs) (HIV) | spermicidal activity (Spermicidal activity)
Dextrin 3-sulphate [Example 1] | relatively poor activity | –
dextrin sulphate | – | little or no spermicidal activity

— patent US20060234977A1, “Antiviral compostion comprising a sulphated glucose polymer and a bacteriostatic agent” (priority 2003, published 2006)
